Measured values from patent US8993717B2, “Gadd45beta targeting agents” (Imperial Innovations Limited, priority 2009, dated 2015).
Square brackets hold non-standard residues; d marks the D form. Peptide text beside a SMILES is read from it. * marks the point of attachment. Cbz = O=C(OCc1ccccc1)*

How the values were obtained:
[1] = tested on: 22 resistant tumour cell lines; experiment: [3H]thymidine incorporation assay in a panel of 22 resistant tumour cell lines; details: 100 μM, 144 hours
Procedure: In these latter assays, the effects of Z-DTPs, Ac-DTPs and Z-LTPs on the survival/proliferation of tumour cell lines was investigated by measuring DNA synthesis using standard tritiated thymidine ([^3H]thymidine; [^3H]-TdR) uptake assays. In the analyses shown, cells were incubated for 24, 72, 120 or 144 hrs at 37° C. in the presence or absence of control or bioactive tetrapeptides, as indicated, then subjected to an additional incubation for 18 hrs with [^3H]-TdR (0.037 MBq/well, equivalent to […]). Cells were subsequently harvested onto glass fibre filter mats using a 96-well plate automated cell harvester, after which scintillation fluid was added, and [^3H]thymidine incorporation measured by liquid scintillation spectroscopy on a beta counter. The results are expressed as the percentages of the counts per minute (c.p.m.) (directly correlating with the extent of cell proliferation) measured with tetrapeptide-treated cultures relative to the c.p.m. measured with the corresponding cultures incubated with medium alone (untreated cells). All experiments were performed in triplicate.

[2] = molecular target: T1, Gadd45β (Homo sapiens, UniProt O75293); experiment: Surface Plasmon Resonance, immobilized Gadd45β; format: binding; details: 1 nM to 10 μM
T1 construct: made in house
T1 sequence (O75293 1-160): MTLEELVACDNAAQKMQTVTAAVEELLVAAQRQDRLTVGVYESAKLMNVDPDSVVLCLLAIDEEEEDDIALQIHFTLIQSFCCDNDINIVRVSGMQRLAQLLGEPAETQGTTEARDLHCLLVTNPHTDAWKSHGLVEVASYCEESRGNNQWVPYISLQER
Procedure: (§1) To determine how DTPs bind to the Gadd45 β/MKK7 complex, experiments were performed with a Biacore3000 SPR instrument (GE Healthcare, Milan, Italy), using 4-channels CM5 sensorchips (GE Healthcare, Milan, Italy). Full length human Gadd45β was prepared and purified as described in the reference by Tornatore L., et al. (2008). J Mol Biol; 378:97-111. […] The protein was purified to homogeneity by two subsequent steps of affinity chromatography (Ni-NTA support) and gel filtration (Superdex G75), and then characterized by SDS-PAGE, LC-MS to verify identity and purity, and by Circular Dichroism to assess folding.
(§2) MKK7KD was immobilized on the Biacore sensorchip via classical EDC/NHS coupling chemistry at pH 5 (protein pI, ˜9) at a flow rate of 5 uL/min An immobilization level of about 8000 Response Units was achieved. Gadd45β, which is an intrinsically acidic protein with a pI of about 4.5, was immobilized at pH 3.5 (6000 RU immobilization levels) on a separate channel. The residual reactive groups on both the Gadd45β and MKK7KD channels were finally inactivated by treatment with ethanolamine. On another channel the same procedure of activation with EDC/NHS and inactivation with ethanolamine was performed. […]

[3] = molecular target: T2, Gadd45β/MKK7 complex (Homo sapiens, UniProt O14733, S271D/T275D); experiment: Surface Plasmon Resonance, preformed Gadd45β/MKK7KD complex; format: binding
T2 construct: His6; made in house; host or cells: E. coli (MKK7KD)
T2 sequence (O14733 101-405 isoform O14733-3 S287D/T291D limits assumed): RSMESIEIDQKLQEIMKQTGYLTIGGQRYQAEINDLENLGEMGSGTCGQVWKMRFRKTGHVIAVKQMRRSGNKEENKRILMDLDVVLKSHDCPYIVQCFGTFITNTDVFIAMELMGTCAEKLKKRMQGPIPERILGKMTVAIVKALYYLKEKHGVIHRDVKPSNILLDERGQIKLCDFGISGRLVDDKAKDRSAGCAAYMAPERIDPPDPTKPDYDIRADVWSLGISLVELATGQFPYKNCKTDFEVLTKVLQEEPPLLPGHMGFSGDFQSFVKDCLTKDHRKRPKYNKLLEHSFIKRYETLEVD
Procedure: as §1, §2

Row | Compound | cytotoxicity in resistant tumour cell lines [1] | binding to Gadd45β in isolation [2] | effect on preformed Gadd45β/MKK7KD complex ([3]; injected at 10 nM or 100 nM during dissociation phase) | binding to preformed Gadd45β/MKK7KD complex ([3]; injected at higher concentrations (e.g. 1 μM))
1 | N=C(N)NCCC[C@@H](NC(=O)[C@@H](CCC(=O)O)NC(=O)[C@@H](Cc1ccc(O)cc1)NC(=O)OCc1ccccc1)C(=O)N[C@H](Cc1ccccc1)C(N)=O [Compound 9, Z-D-Tyr-D-Glu-D-Arg-D-Phe-NH2] (Cbz-[dY][dE][dR][dF]-NH2) | no cytotoxicity |  |  | 
2 | CC(=O)N[C@H](Cc1ccc(O)cc1)C(=O)N[C@H](CCCNC(=N)N)C(=O)N[C@H](Cc1ccccc1)C(N)=O [Compound 17, Ac-D-Tyr-D-Arg-D-Phe-NH2] (Ac-[dY]-[dR]-[dF]-NH2) |  | does not bind | induced a rapid dissociation of the Gadd45β/MKK7KD complex | dose-response binding and dissociation curves were recorded
